Test results reported in patent publication US20220380319A1 (Bial - R&D Investments, S.A., priority 2019, published 2022).
In brackets after ≈: the same amount, converted by molar mass.

What was measured:
[1] = Compound solubility in water
acid ceramidase = molecular target: T1, acid ceramidase (Homo sapiens, UniProt Q13510); assay: Acid ceramidase inhibition, biochemical fluorescent assay with cell lysates overexpressing acid ceramidase, substrate Rbm14-12; settings: substrate Rbm14-12 6.3 μM, pH 4.5
T1 construct: Cell lysates overexpressing acid ceramidase were used as the enzyme source; expressed in transfected cells
T1 sequence (Q13510 22-395): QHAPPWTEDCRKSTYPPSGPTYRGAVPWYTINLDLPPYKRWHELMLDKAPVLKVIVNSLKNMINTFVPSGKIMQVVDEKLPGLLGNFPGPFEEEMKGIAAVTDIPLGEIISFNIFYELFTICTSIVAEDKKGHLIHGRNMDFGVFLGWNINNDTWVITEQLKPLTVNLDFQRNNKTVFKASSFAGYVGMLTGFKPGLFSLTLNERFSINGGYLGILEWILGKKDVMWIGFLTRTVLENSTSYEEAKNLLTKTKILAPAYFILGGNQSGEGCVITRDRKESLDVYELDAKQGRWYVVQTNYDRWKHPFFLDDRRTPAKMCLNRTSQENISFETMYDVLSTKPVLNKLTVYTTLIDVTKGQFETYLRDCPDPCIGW
How it was run: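 IC50 derived by four-parameter fitting of fluorescence (ex360 nm, em446 nm) produced after 1 hr in methanol/NaIO4/glycine stop buffer, pH 10.6. Reaction: 6.3 μM Rbm14-12, 1 hr RT, following 1 hr RT compound preincubation with 10 μg overexpressing-cell lysate protein in pH 4.5 NaAC/NaCl buffer.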

Structure (SMILES)	solubility [1]	IC50 (acid ceramidase)
COc1nc2cc(N3CCOCC3)ccc2n1C(=O)NCC1(CC2CC2)CC1 [Example 229b, N-((1-(cyclopropylmethyl)cyclopropyl)methyl)-2-methoxy-5-morpholino-1H-benzo[d]imidazole-1-carboxamide]	9 µg/mL (≈ 23.4 µM)	< 200 nM
COc1nc2ccc(N3CCOCC3)cc2n1C(=O)NCCC1CC1C(F)(F)F (centres unmarked) [Example 230a, 2-Methoxy-6-morpholino-N-(2-(2-(trifluoromethyl)cyclopropyl)ethyl)-1H-benzo[d]imidazole-1-carboxamide]	26 µg/mL (≈ 63 µM)	200 to 1000 nM
COc1nc2cc(N3CCOCC3)ccc2n1C(=O)NCCC1CC1C(F)(F)F (centres unmarked) [Example 230b, 2-methoxy-5-morpholino-N-(2-(2-(trifluoromethyl)cyclopropyl)-ethyl)-1H-benzo[d]imidazole-1-carboxamide]	32 µg/mL (≈ 77.6 µM)	200 to 1000 nM
COc1nc2ccc(N3CCOCC3)cc2n1C(=O)NCC1CC1Cc1ccccc1 (centres unmarked) [Example 231a, N-((2-benzylcyclopropyl)methyl)-2-methoxy-6-morpholino-1H-benzo[d]imidazole-1-carboxamide]	14 µg/mL (≈ 33.3 µM)	200 to 1000 nM
COc1nc2cc(N3CCOCC3)ccc2n1C(=O)NCC1CC1Cc1ccccc1 (centres unmarked) [Example 231b, N-((2-benzylcyclopropyl)methyl)-2-methoxy-5-morpholino-1H-benzo[d]imidazole-1-carboxamide]	13 µg/mL (≈ 30.9 µM)	< 200 nM
COc1nc2ccc(N3CCOCC3)cc2n1C(=O)NCCCc1ccc(F)nc1 [Example 232a, N-(3-(6-Fluoropyridin-3-yl)propyl)-2-methoxy-6-morpholino-1H-benzo[d]imidazole-1-carboxamide]	25 µg/mL (≈ 60.5 µM)	> 1000 nM
COc1nc2cc(N3CCOCC3)ccc2n1C(=O)NCCCc1ccc(F)nc1 [Example 232b, N-(3-(6-fluoropyridin-3-yl)propyl)-2-methoxy-5-morpholino-1H-benzo[d]imidazole-1-carboxamide]	25 µg/mL (≈ 60.5 µM)	> 1000 nM
COc1nc2ccc(N3CCOCC3)cc2n1C(=O)NCCCOC(F)(F)F [Example 233a, 2-Methoxy-6-morpholino-N-(3-(trifluoromethoxy)propyl)-1H-benzo[d]imidazole-1-carboxamide]	30 µg/mL (≈ 74.6 µM)	200 to 1000 nM
COc1nc2cc(N3CCOCC3)ccc2n1C(=O)NCCCOC(F)(F)F [Example 233b, 2-methoxy-5-morpholino-N-(3-(trifluoromethoxy)propyl)-1H-benzo[d]imidazole-1-carboxamide]	29 µg/mL (≈ 72.1 µM)	200 to 1000 nM
CC(C)C(=O)N1CCN(c2cccc3c2ncn3C(=O)NCCCC2(C(F)(F)F)CC2)CC1 [Example 234, 4-(4-iso-Butyrylpiperazin-1-yl)-N-(3-(1-(trifluoromethyl)cyclopropyl)propyl)-1H-benzo[d]imidazole-1-carboxamide]	1 µg/mL (≈ 2.15 µM)	< 200 nM
CC(=O)N1CCN(c2cccc3c2ncn3C(=O)NCCCC2(C(F)(F)F)CC2)CC1 [Example 235, 4-(4-Acetylpiperazin-1-yl)-N-(3-(1-(trifluoromethyl)cyclopropyl)propyl)-1H-benzo[d]imidazole-1-carboxamide]	20 µg/mL (≈ 45.7 µM)	< 200 nM
COc1nc2cc(N3CCN(C(C)=O)CC3)ccc2n1C(=O)NCCCc1ccccc1 [Example 236a, 5-(4-Acetylpiperazin-1-yl)-2-methoxy-N-(3-phenylpropyl)-1H-benzo[d]imidazole-1-carboxamide]	18 µg/mL (≈ 41.3 µM)	< 200 nM
COc1nc2ccc(N3CCN(C(C)=O)CC3)cc2n1C(=O)NCCCc1ccccc1 [Example 236b, 6-(4-acetylpiperazin-1-yl)-2-methoxy-N-(3-phenylpropyl)-1H-benzo[d]imidazole-1-carboxamide]	23 µg/mL (≈ 52.8 µM)	< 200 nM
COc1nc2cc(N3[C@@H]4CC[C@H]3COC4)ccc2n1C(=O)NCCCc1ccccc1 [Example 237a, 5-((1R,5S)-3-Oxa-8-azabicyclo[3.2.1]octan-8-yl)-2-methoxy-N-(3-phenylpropyl)-1H-benzo[d]imidazole-1-carboxamide]	1 µg/mL (≈ 2.38 µM)	< 200 nM
COc1nc2ccc(N3[C@@H]4CC[C@H]3COC4)cc2n1C(=O)NCCCc1ccccc1 [Example 237b, 6-((1R,5S)-3-oxa-8-azabicyclo[3.2.1]octan-8-yl)-2-methoxy-N-(3-phenylpropyl)-1H-benzo[d]imidazole-1-carboxamide]	5 µg/mL (≈ 11.9 µM)	< 200 nM
COc1nc2ccc(N3CCC4(CC3)COC4)cc2n1C(=O)NCCCc1ccccc1 [Example 238a, 2-Methoxy-N-(3-phenylpropyl)-6-(2-oxa-7-azaspiro[3,5]nonan-7-yl)-1H-benzo[d]imidazole-1-carboxamide]	11 µg/mL (≈ 25.3 µM)	< 200 nM

Structure (SMILES)	solubility [1]	IC50 (acid ceramidase)
COc1nc2cc(N3CCC4(CC3)COC4)ccc2n1C(=O)NCCCc1ccccc1 [Example 238b, 2-methoxy-N-(3-phenylpropyl)-5-(2-oxa-7-azaspiro[3.5]nonan-7-yl)-1H-benzo[d]-imidazole-1-carboxamide]	12 µg/mL (≈ 27.6 µM)	200 to 1000 nM
O=C(NCCCc1ccccc1)n1cnc2c(N3CCN4CCCC4C3)cccc21 (centres unmarked) [Example 239, 4-(Hexahydropyrrolo[1,2-a]pyrazin-2(1H)-yl)-N-(3-phenylpropyl)-1H-benzo[d]imidazole-1-carboxamide]	17 µg/mL (≈ 42.1 µM)	< 200 nM
CN1[C@@H]2CC[C@H]1CN(c1cccc3c1ncn3C(=O)NCCCc1ccccc1)C2 [Example 240, 4-((1R,5S)-8-Methyl-3,8-diazabicyclo[3.2.1]octan-3-yl)-N-(3-phenylpropyl)-1H-benzo[d]imidazole-1-carboxamide]	28 µg/mL (≈ 69.4 µM)	200 to 1000 nM
CN1CC2CCC(C1)N2c1cccc2c1ncn2C(=O)NCCCc1ccccc1 [Example 241, 4-(3-Methyl-3,8-diazabicyclo[3.2.1]octan-8-yl)-N-(3-phenylpropyl)-1H-benzo[d]imidazole-1-carboxamide]	25 µg/mL (≈ 62 µM)	< 200 nM
CN1C2CC1CN(c1cccc3c1ncn3C(=O)NCCCc1ccccc1)C2 [Example 243, 4-(6-Methyl-3,6-diazabicyclo[3.1.1]heptan-3-yl)-N-(3-phenylpropyl)-1H-benzo[d]imidazole-1-carboxamide]	28 µg/mL (≈ 71.9 µM)	< 200 nM
CN1C[C@@H]2C[C@H]1CN2c1cccc2c1ncn2C(=O)NCCCc1ccccc1 [Example 244, 4-((1S,4S)-5-Methyl-2,5-diazabicyclo[2.2.1]heptan-2-yl)-N-(3-phenylpropyl)-1H-benzo[d]imidazole-1-carboxamide]	30 µg/mL (≈ 77 µM)	< 200 nM
CN1CC2CC(C1)N2c1cccc2c1ncn2C(=O)NCCCc1ccccc1 [Example 245, 4-(3-Methyl-3,6-diazabicyclo[3.1.1]heptan-6-yl)-N-(3-phenylpropyl)-1H-benzo[d]imidazole-1-carboxamide]	32 µg/mL (≈ 82.2 µM)	< 200 nM
CN1C[C@H]2C[C@@H]1CN2c1cccc2c1ncn2C(=O)NCCCc1ccccc1 [Example 246, 4-((1R,4R)-5-Methyl-2,5-diazabicyclo[2.2.1]heptan-2-yl)-N-(3-phenylpropyl)-1H-benzo[d]imidazole-1-carboxamide]	29 µg/mL (≈ 74.5 µM)	< 200 nM
CN1CC2CCC1CN2c1cccc2c1ncn2C(=O)NCCCc1ccccc1 (centres unmarked) [Example 247, 4-(5-Methyl-2,5-diazabicyclo[2.2.2]octan-2-yl)-N-(3-phenylpropyl)-1H-benzo[d]imidazole-1-carboxamide]	28 µg/mL (≈ 69.4 µM)	< 200 nM
O=C(NCCCc1ccccc1)n1cnc2c(N3CCC(F)(F)CC3)cccc21 [Example 248, 4-(4,4-Difluoropiperidin-1-yl)-N-(3-phenylpropyl)-1H-benzo[d]imidazole-1-carboxamide]	1 µg/mL (≈ 2.51 µM)	< 200 nM
CCN1CCN(c2cccc3c2ncn3C(=O)NCCCc2ccccc2)CC1 [Example 249, 4-(4-Ethylpiperazin-1-yl)-N-(3-phenylpropyl)-1H-benzo[d]imidazole-1-carboxamide]	12 µg/mL (≈ 30.6 µM)	< 200 nM
CN1CCN(c2cccc3c2ncn3C(=O)NCCCc2ccccc2)CC12CC2 [Example 250, 4-(4-Methyl-4,7-diazaspiro[2.5]octan-7-yl)-N-(3-phenylpropyl)-1H-benzo[d]imidazole-1-carboxamide]	23 µg/mL (≈ 57 µM)	< 200 nM
CN1CC(N2CCN(c3cccc4c3ncn4C(=O)NCCCc3ccccc3)CC2)C1 [Example 251, 4-(4-(1-Methylazetidin-3-yl)piperazin-1-yl)-N-(3-phenylpropyl)-1H-benzo[d]imidazole-1-carboxamide]	35 µg/mL (≈ 80.9 µM)	< 200 nM
O=C1CN(c2cccc3c2ncn3C(=O)NCCCc2ccccc2)CCN1C1CC1 [Example 252, 4-(4-Cyclopropyl-3-oxopiperazin-1-yl)-N-(3-phenylpropyl)-1H-benzo[d]imidazole-1-carboxamide]	1 µg/mL (≈ 2.4 µM)	< 200 nM
C[C@@H](CCNC(=O)n1cnc2c(N3CCN(C)CC3)cccc21)c1ccccc1 [Example 253a, (S)-4-(4-Methylpiperazin-1-yl)-N-(3-phenylbutyl)-1H-benzo[d]imidazole-1-carboxamide]	26 µg/mL (≈ 66.4 µM)	< 200 nM
